Measured values: US8921576B2, “Spiroindoline compound, and medicinal agent comprising same” (Kowa Company, Ltd., priority 2011, dated 2014)

Target: T1, GST-GK derived from human liver GK (Homo sapiens, UniProt P35557)
T1 construct: made in house; host or cells: Escherichia coli DH5α
T1 sequence (P35557 1-466 isoform P35557-2): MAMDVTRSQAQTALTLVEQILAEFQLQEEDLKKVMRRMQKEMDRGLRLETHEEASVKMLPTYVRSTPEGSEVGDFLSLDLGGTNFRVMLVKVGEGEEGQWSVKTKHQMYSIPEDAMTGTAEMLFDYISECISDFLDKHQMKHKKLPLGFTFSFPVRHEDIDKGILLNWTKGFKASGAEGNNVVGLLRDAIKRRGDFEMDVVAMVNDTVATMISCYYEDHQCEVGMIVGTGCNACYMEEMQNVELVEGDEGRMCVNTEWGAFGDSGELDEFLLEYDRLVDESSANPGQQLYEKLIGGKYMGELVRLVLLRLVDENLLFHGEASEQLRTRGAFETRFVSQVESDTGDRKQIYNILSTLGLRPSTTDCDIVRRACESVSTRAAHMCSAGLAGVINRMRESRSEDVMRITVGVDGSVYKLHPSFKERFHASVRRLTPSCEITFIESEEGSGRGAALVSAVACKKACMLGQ
Assay: In vitro GK activity measurement test (G6PDH-coupled, OD340)
Type: biochemical
Conditions: test compound 1 μmol/L; glucose 2.5 mmol/L; 25° C.; OD340 slope with compound / without compound; read-out: GK activation rate (%)
Description: cDNA (GenBank Accession No. NM_033507, human glucokinase, variant 2) encoding human liver-type GK polypeptide was cloned by performing a polymerase chain reaction (hereinafter referred to as “PCR”) using a human liver cDNA library (Human liver QUICK-Clone cDNA, TAKARA BIO INC.), and the thus cloned cDNA was then introduced into an expression vector (pGEX-3X, GE Healthcare Japan) for glutathione S transferase (hereinafter referred to as GST) fusion protein expression. The resulting vector was introduced into Escherichia coli (Competent high DH5α, Toyobo Co., Ltd.), and the transformed Escherichia coli was then cultured at 37° C. Thereafter, Isopropyl β-D-1-thiogalactopyranoside (final concentration: 1 mmol/L, Sigma Aldrich Japan) was added to the culture, and the obtained mixture was then cultured at 30° C. for 3 hours. Thereafter, a cell mass was recovered. The recovered cell mass was subjected to freezing-and-thawing, and the resulting cell mass was then suspended in phosphate buffer with final concentration of 1% Triton X-100, followed by disintegration with an ultrasonic disruptor. The homogenate was centrifuged at 33,200 rpm at 4° C. for 1 hour. Thereafter, the supernatant was recovered, and a GST-GK fusion protein was then purified using a glutathione column (GSTrap FF, GE Healthcare Japan). The obtained GST-GK fusion protein was divided into some portions each having a small volume, and the thus divided proteins were then preserved at −80° C.
A GK assay method was carried out at 25° C. at a final incubation volume of 100 μL in a flat-bottom 96-well assay plate. An assay buffer comprised 25 mmol/L Hepes buffer (pH 7.1), 25 mmol/L KCl, 2.5 mmol/L or 10 mmol/L D-glucose, 5 mmol/L ATP, 1 mmol/L nicotinamide adenine dinucleotide phosphate (abbreviated as NADP), 2 mmol/L MgCl2, 1 mmol/L dithiothreitol (DTT), 2 units/mL glucose-6 phosphate dehydrogenase (G6PDH), and 1 μg/mL GST-GK derived from human liver GK. ATP, G6PDH, and NADP were purchased from Roche Diagnostics. […] The thus mixed solution was preincubated in an incubator in which the temperature was controlled at 25° C. for 15 minutes. Subsequently, the reaction was initiated by adding 10 μL of the GST-GK solution to the reaction mixture, resulting in a final concentration of 0.1 μg/mL. After initiation of the reaction, an increase in the optical concentration at 340 nm (OD340) was monitored with a microplate spectrophotometer (Varsamax, Molecular Devices Japan K.K.) every 10 seconds over an incubation period of 10 minutes. An inclination of the OD340 increase was defined as raw data. The GK activating rate was indicated as a numerical value obtained from the expression: (Inclination of OD340 increase by addition of the test compound)/(inclination of OD340 increase without addition of the test compound). The results of the GK activating rate obtained at a test compound concentration of 1 μmol/L under the condition of a glucose concentration of 2.5 mmol/L are shown in the following table.

activity at 1 µM [%]	Structure (SMILES)
446	O=C(CCNC(=O)N1CCC2(C1)CN(C(=O)Nc1ncc(Cl)s1)c1ccc(Cl)cc12)N1CCC1 (centres unmarked) [Example 466, N1′-(3-(Azetidin-1-yl)-3-oxopropyl)-5-chloro-N1-(5-chlorothiazol-2-yl)spiro[indoline-3,3′-pyrrolidine]-1,1′-dicarboxamide]
420	COC(=O)N1CC[C@@]2(C1)CN(C(=O)Nc1nc3ccc(OC)nc3s1)c1ccc(S(=O)(=O)N(CCCC(=O)O)Cc3ccccc3)cc12 [Example 342, (S)-4-(N-benzyl-1′-(methoxycarbonyl)-1-((5-methoxythiazolo[5,4-b]pyridin-2-yl)carbamoyl)spiro[indoline-3,3′-pyrrolidin]-5-ylsulfonamido)butyric acid]
437	CNC(=O)N1CC[C@@]2(C1)CN(C(=O)Nc1ncc(F)s1)c1ccc(Cl)cc12 [Example 374, (R)-5-chloro-N1-(5-fluorothiazol-2-yl)-N1′-methylspiro[indoline-3,3′-pyrrolidine]-1,1′-dicarboxamide]
574	COC(=O)N1CCC2(C1)CN(C(=O)Nc1ncc(SC(C)CO)s1)c1ccc(Cl)cc12 (centres unmarked) [Example 141, methyl 5-chloro-1-((5-((1-hydroxypropan-2-yl)thio)thiazol-2-yl)carbamoyl)spiro[indoline-3,3′-pyrrolidine]-1′-carboxylate]
669	COC(=O)N1CCC2(C1)CN(C(=O)Nc1ncc(SCCCNS(=O)(=O)C3CC3)s1)c1ccc(Cl)cc12 (centres unmarked) [Example 179, methyl 5-chloro-1-((5-((3-(cyclopropanesulfonamido)propyl)thio)thiazol-2-yl)carbamoyl)spiro[indoline-3,3′-pyrrolidine]-1′-carboxylate]
451	COC(=O)N1CC[C@@]2(C1)CN(C(=O)Nc1ncc(SCC(=O)O)s1)c1ccc(Br)cc12 [Example 336, (S)-2-((2-(5-bromo-1′-(methoxycarbonyl)spiro[indoline-3,3′-pyrrolidin]-1-ylcarboxamido)thiazol-5-yl)thio)acetic acid]
645	CNC(=O)N1CC[C@@]2(C1)CN(C(=O)Nc1ncc(OC)s1)c1ccc(C(F)(F)F)cc12 [Example 489, (R)—N1-(5-Methoxythiazol-2-yl)-N1′-methyl-5-(trifluoromethyl)spiro[indoline-3,3′-pyrrolidine]-1,1′-dicarboxamide]
656	CNC(=O)CCSc1cnc(NC(=O)N2CC3(CCN(C(=O)OC)C3)c3cc(Cl)ccc32)s1 (centres unmarked) [Example 151, methyl 5-chloro-1-((5-((3-(methylamino)-3-oxopropyl)thio)thiazol-2-yl)carbamoyl)spiro[indoline-3,3′-pyrrolidine]-1′-carboxylate]
886	COC(=O)N1CC[C@@]2(C1)CN(C(=O)Nc1ncc(Cl)s1)c1ccc(Cl)cc12 [Example 351, (S)-methyl 5-chloro-1-((5-chlorothiazol-2-yl)carbamoyl)spiro[indoline-3,3′-pyrrolidine]-1′-carboxylate]
499	CNC(=O)C(=O)N1CCC2(C1)CN(C(=O)Nc1ncc(Cl)s1)c1ccc(Cl)cc12 (centres unmarked) [Example 46, 5-chloro-N-(5-chlorothiazol-2-yl)-1′-(2-(methylamino)-2-oxoacetyl)spiro[indoline-3,3′-pyrrolidine]-1-carboxamide]
526	O=C(NCCCO)N1CCC2(C1)CN(C(=O)Nc1ncc(Cl)s1)c1ccc(Cl)cc12 (centres unmarked) [Example 464, 5-chloro-N1-(5-chlorothiazol-2-yl)-N1′-(3-hydroxypropyl)spiro[indoline-3,3′-pyrrolidine]-1,1′-dicarboxamide]
578	COc1ccc2nc(NC(=O)N3CC4(CCN(C(C)=O)C4)c4cc(S(=O)(=O)NCc5ccco5)ccc43)sc2n1 (centres unmarked) [Example 271, 1′-Acetyl-5-(N-(furan-2-ylmethyl)sulfamoyl)-N-(5-methoxythiazolo[5,4-b]pyridin-2-yl)spiro[indoline-3,3′-pyrrolidine]-1-carboxamide]
692	COc1ccc2nc(NC(=O)N3CC4(CCN(C(C)=O)C4)c4cc(S(=O)(=O)NCc5cccs5)ccc43)sc2n1 (centres unmarked) [Example 273, 1′-Acetyl-N-(5-methoxythiazolo[5,4-b]pyridin-2-yl)-5-(N-(thiophen-2-ylmethyl)sulfamoyl)spiro[indoline-3,3′-pyrrolidine]-1-carboxamide]
531	CC(=O)OCC(=O)N1CC[C@@]2(C1)CN(C(=O)Nc1ncc(Cl)s1)c1ccc(Cl)cc12 [Example 52, (R)-2-(5-chloro-1-((5-chlorothiazol-2-yl)carbamoyl)spiro[indoline-3,3′-pyrrolidin]-1′-yl)-2-oxoethyl acetate]
405	CCOC(=O)CCCNC(=O)N1CCC2(C1)CN(C(=O)Nc1ncc(Cl)s1)c1ccc(Cl)cc12 (centres unmarked) [Example 468, Ethyl 4-(5-chloro-1-((5-chlorothiazol-2-yl)carbamoyl)spiro[indoline-3,3′-pyrrolidin]-1′-ylcarboxamido)butanoate]
504	CN(C)CCN(Cc1ccccc1)S(=O)(=O)c1ccc2c(c1)C1(CCN(C=O)C1)CN2C(=O)Nc1ncc(F)s1 (centres unmarked) [Example 308, 5-(N-benzyl-N-(2-(dimethylamino)ethyl)sulfamoyl)-N-(5-fluorothiazol-2-yl)-1′-formylspiro[indoline-3,3′-pyrrolidine]-1-carboxamide]
473	COC(=O)N1CCC2(C1)CN(C(=O)Nc1ncc(SCCC(=O)N3CCOCC3)s1)c1ccc(Cl)cc12 (centres unmarked) [Example 154, methyl 5-chloro-1-((5-((3-morpholino-3-oxopropyl)thio)thiazol-2-yl)carbamoyl)spiro[indoline-3,3′-pyrrolidine]-1′-carboxylate]
537	O=C(NCCO)N1CCC2(C1)CN(C(=O)Nc1ncc(Cl)s1)c1ccc(Cl)cc12 (centres unmarked) [Example 459, 5-chloro-N1-(5-chlorothiazol-2-yl)-N1′-(2-hydroxyethyl)spiro[indoline-3,3′-pyrrolidine]-1,1′-dicarboxamide]
606	COC(=O)NCCCSc1cnc(NC(=O)N2CC3(CCN(C(=O)OC)C3)c3cc(Cl)ccc32)s1 (centres unmarked) [Example 455, methyl 5-chloro-1-((5-((3-((methoxycarbonyl)amino)propyl)thio)thiazol-2-yl)carbamoyl)spiro[indoline-3,3′-pyrrolidine]-1′-carboxylate]
411	COC(=O)N1CCC2(C1)CN(C(=O)Nc1ncc(SCC(=O)N(C)C)s1)c1ccc(Cl)cc12 (centres unmarked) [Example 131, methyl 5-chloro-1-((5-((2-(dimethylamino)-2-oxoethyl)thio)thiazol-2-yl)carbamoyl)spiro[indoline-3,3′-pyrrolidine]-1′-carboxylate]
583	COC(=O)N1CCC2(C1)CN(C(=O)Nc1ncc(Oc3cccc(C(N)=O)c3)s1)c1ccc(Cl)cc12 (centres unmarked) [Example 186, methyl 1-((5-(3-carbamoylphenoxy)thiazol-2-yl)carbamoyl)-5-chlorospiro[indoline-3,3′-pyrrolidine]-1′-carboxylate]
554	CCNC(=O)N1CCC2(C1)CN(C(=O)Nc1ncc(Cl)s1)c1ccc(Cl)cc12 (centres unmarked) [Example 379, 5-Chloro-N1-(5-chlorothiazol-2-yl)-N1′-ethylspiro[indoline-3,3′-pyrrolidine]-1,1′-dicarboxamide]
476	CNC(=O)N1CCC2(C1)CN(C(=O)Nc1ncc(Cl)s1)c1ccc(Cl)cc12 (centres unmarked) [Example 373, 5-chloro-N1-(5-chlorothiazol-2-yl)-N1′-methylspiro[indoline-3,3′-pyrrolidine]-1,1′-dicarboxamide]
